According to patent publication US11548894B2, “Benzamide or benzamine compounds useful as anticancer agents for the treatment of human cancers” (The Board of Regents of the University of Texas System, priority 2015, dated 2023):
Where a name gives a salt, the structure may show the parent alone. Read-outs that look alike come from different tables or passages of the source.

Test system: Mut6 cells (TD-NSC)
Test: luminescence-based Celltiter-Glo cell viability assay (ATP levels) on Mut6 tumor derived neuronal stem cells
Parameters: species or system mouse
Conditions: ATP activity as measure of viability, 96 hours; for EC50: read-out: EC50 (TD-NSC)
Text: A mouse colony with 100% incidence of GBM and with conditional knockout of p53, pTEN and NF1 genes (Mut6; glioblastoma) was used to isolate primary neuronal stem cells from GBM tumors cultured in 5% Oxygen and in serum free media with defined growth factors. Primary cells from multiple tumors were pooled for high throughput screening with controls against the University of Texas Southwestern (UTSW) compound file, which encompasses ˜200,000 synthetic compounds that represent a large chemical space from several commercial vendors, including 1200 marketed drugs from the Prestwick Chemical Library®, and 600 compounds that went to pre-clinical tests from the NIH library.
A luminescence-based Celltiter-Glo® assay was performed to measure cell viability, using ATP levels as the readout. In brief, opaque-walled multiwell plates with Mut6 cells in culture medium (25 μl per well, 384-well plates) were prepared. Control wells containing medium without cells were prepared to obtain a value for background luminescence. Test compounds were added to experimental wells, and incubated according to culture protocol. The plate and its contents were incubated at 37° C., 5% […] for 96 hours. An ATP standard curve was generated immediately prior to adding the CellTiter-Glo® Reagent. A volume of CellTiter-Glo® Reagent equal to the volume of cell culture medium present in each well (25 μl of reagent to 25 μl of medium containing cells for a 384-well plate) was added. The contents were mixed for 2 minutes on an orbital shaker to induce cell lysis. The plate was allowed to incubate at room temperature for 10 minutes to stabilize the luminescent signal and luminescence recorded. (e.g. GloMax®, Lumistar, SPECTROstar, PHERAstar FS).
Compound 4C12 served as initial lead compound for analog development and for additional studies. […] See Wager, T T et al, “Moving beyond rules: the development of a central nervous system multi-parameter-optimization (CNS MPO) approach to enable alignment of drug-like properties,” ACS Chem. Neurosci. 1(6): 435-49 (2010). IC50 curves for the analog compounds plotted as ATP activity (y axis, a measure of viability) vs. concentration (nM) (x-axis) are shown in FIG. 9.

SMILES	EC50 (Mus musculus, 96 h) [µM]	also measured
CCN1CCCC1CNC(=O)c1ccc(Oc2ccc(F)cc2)c([N+](=O)[O-])c1 (centres unmarked) [DS-1-103, N-((1-ethylpyrrolidin-2-yl)methyl)-4-(4-fluorophenoxy)-3-nitrobenzamide]	0.036	–
CCN1CCCC1CNC(=O)c1ccc(Sc2ccccn2)c([N+](=O)[O-])c1 (centres unmarked) [DS-1-071, N-((1-ethylpyrrolidin-2-yl)methyl)-3-nitro-4-(pyridin-2-ylthio)benzamide]	0.419	–
CN(CCNC(=O)CCCC[C@@H]1SC[C@@H]2NC(=O)N[C@@H]21)CCNC(=O)c1ccc(Sc2ccc(F)cc2)c([N+](=O)[O-])c1 [DS-1-205]	40	–
CCN1CCCC1CNC(=O)c1ccc(-c2ccc(F)cc2)c([N+](=O)[O-])c1 (centres unmarked) [DS-1-181, N-((1-ethylpyrrolidin-2-yl)methyl)-4′-fluoro-2-nitro-[1,1′-biphenyl]-4-carboxamide]	> 1	–
CCN1CCCC1CNC(=O)c1ccc(Sc2ccc(C(=O)O)cc2)c([N+](=O)[O-])c1 (centres unmarked) [DS-1-179, 4-((4-(((1-ethylpyrrolidin-2-yl)methyl)carbamoyl)-2-nitrophenyl)thio)benzoic Acid Hydrochloride]	> 1	–
CCN1CCCC1CNC(=O)c1ccc(Sc2ccc(F)cc2)c(C(N)=O)c1 (centres unmarked) [DS-1-231-M, N^1-((1-ethylpyrrolidin-2-yl)methyl)-4-((4-fluorophenyl)thio)isophthalamide]	> 1	–
CCN1CCCC1CNC(=O)c1ccc(Sc2ccc(NC(C)=O)cc2)c([N+](=O)[O-])c1 (centres unmarked) [DS-1-077, 4-((4-acetamidophenyl)thio)-N-((1-ethylpyrrolidin-2-yl)methyl)-3-nitrobenzamide]	> 1	–
CCOC(=O)c1cc(F)ccc1Sc1ccc(C(=O)NCC2CCCN2CC)cc1[N+](=O)[O-] (centres unmarked) [DS-1-265, Ethyl 2-((4-(((1-ethylpyrrolidin-2-yl)methyl)carbamoyl)-2-nitrophenyl)thio)-5-fluorobenzoate]	> 1	–
O=C(NCCN1CCNCC1)c1ccc(Sc2ccc(F)cc2)c([N+](=O)[O-])c1 [DS-2-129, 4-((4-fluorophenyl)thio)-3-nitro-N-(2-(piperazin-1-yl)ethyl)benzamide]	0.141	–
CCN1CCCC1CNC(=O)c1ccc(Sc2ccccc2Cl)c([N+](=O)[O-])c1 (centres unmarked) [JCH-111, 4-((2-chlorophenyl)thio)-N-((1-ethylpyrrolidin-2-yl)methyl)-3-nitrobenzamide]	0.119	–
CCN1CCCC1CNC(=O)c1ccc(Sc2ccc([N+](=O)[O-])cc2)c([N+](=O)[O-])c1 (centres unmarked) [DS-1-137, N-((1-ethylpyrrolidin-2-yl)methyl)-3-nitro-4-((4-nitrophenyl)thio)benzamide]	–	EC50 (Mus musculus): 0.069 µM
CCN1CCCC1CNC(=O)c1ccc(Sc2ccc(F)cc2)nc1 (centres unmarked) [DS-1-209, N-((1-ethylpyrrolidin-2-yl)methyl)-6-((4-fluorophenyl)thio)nicotinamide]	> 1	–
CCN1CCCC1CNC(=O)c1ccc(Sc2ccc(F)cc2)c([N+](=O)[O-])c1 (centres unmarked) [DS-1-191, N-((1-ethylpyrrolidin-2-yl)methyl)-4-((4-fluorophenyl)thio)-3-nitrobenzamide Hydrochloride]	–	EC50 (Hydrochloride): 0.095 µM
O=C(NCCN1CCOCC1)c1ccc(Sc2ccc(F)cc2)c([N+](=O)[O-])c1 [DS-1-241, 4-((4-fluorophenyl)thio)-N-(2-morpholinoethyl)-3-nitrobenzamide Hydrochloride]	–	EC50 (Hydrochloride): 0.044 µM
CCN1CCCC1CNC(=O)c1ccc(Sc2ccccc2O)c([N+](=O)[O-])c1 (centres unmarked) [JCH-143, N-((1-ethylpyrrolidin-2-yl)methyl)-4-((2-hydroxyphenyl)thio)-3-nitrobenzamide]	0.16	–
CCN1CCCC1CNC(=O)c1ccc(Sc2cccc3cccnc23)c([N+](=O)[O-])c1 (centres unmarked) [DS-1-269, N-((1-ethylpyrrolidin-2-yl)methyl)-3-nitro-4-(quinolin-8-ylthio)benzamide]	0.535	–
CN1CCN(CCNC(=O)c2ccc(Sc3ccc(F)cc3)c([N+](=O)[O-])c2)CC1 [DS-2-121, 4-((4-fluorophenyl)thio)-N-(2-(4-methylpiperazin-1-yl)ethyl)-3-nitrobenzamide]	0.287	–
CCN1CCCC1CNC(=O)c1ccc(Sc2ccc(Cl)c(C(F)(F)F)c2)c([N+](=O)[O-])c1 (centres unmarked) [DS-2-143, 4-((4-chloro-3-(trifluoromethyl)phenyl)thio)-N-((1-ethylpyrrolidin-2-yl)methyl)-3-nitrobenzamide]	0.129	–

SMILES	EC50 (Mus musculus, 96 h) [µM]	also measured
CCN(CCO)CCNC(=O)c1ccc(Sc2ccc(F)cc2)c([N+](=O)[O-])c1 [ww3-62, N-(2-(ethyl(2-hydroxyethyl)amino)ethyl)-4-((4-fluorophenyl)thio)-3-nitrobenzamide]	0.057	–
C#CCOc1ccc(Sc2ccc(C(=O)NCCNCC)cc2[N+](=O)[O-])cc1 [DS-2-111, N-(2-(ethylamino)ethyl)-3-nitro-4-((4-(prop-2-yn-1-yloxy)phenyl)thio)benzamide]	> 1	–
CC(C)(C)OC(=O)N1CCN(CCNC(=O)c2ccc(Sc3ccc(F)cc3)c([N+](=O)[O-])c2)CC1 [DS-2-127, Tert-butyl 4-(2-(4-((4-fluorophenyl)thio)-3-nitrobenzamido)ethyl)piperazine-1-carboxylate]	–	EC50 (TD-NSC) (nM): Not Active
C#CCN(CC)CCNC(=O)c1ccc(Oc2ccc(C(=O)c3ccccc3)cc2)c([N+](=O)[O-])c1 [DS-2-097, 4-(4-benzoylphenoxy)-N-(2-(ethyl(prop-2-yn-1-yl)amino)ethyl)-3-nitrobenzamide]	> 1	–
CCN1CCCC1CNC(=O)c1ccc(Sc2ccc(N)cc2)c([N+](=O)[O-])c1 (centres unmarked) [DS-1-177, 4-((4-aminophenyl)thio)-N-((1-ethylpyrrolidin-2-yl)methyl)-3-nitrobenzamide]	0.34	–
C#CCOc1ccc(Sc2ccc(C(=O)NCCN(CC)Cc3ccc(C(=O)c4ccccc4)cc3)cc2[N+](=O)[O-])cc1 [DS-2-093, N-(2-((4-benzoylbenzyl)(ethyl)amino)ethyl)-3-nitro-4-((4-(prop-2-yn-1-yloxy)phenyl)thio)benzamide]	> 1	–
CCN1CCCC1CNC(=O)c1ccc(Sc2ccc(O)cc2)c([N+](=O)[O-])c1 (centres unmarked) [DS-1-217, N-((1-ethylpyrrolidin-2-yl)methyl)-4-((4-hydroxyphenyl)thio)-3-nitrobenzamide]	0.485	–
CCN1CCCC1CNC(=O)c1ccc(Sc2ccccc2C)c([N+](=O)[O-])c1 (centres unmarked) [JCH-114, N-((1-ethylpyrrolidin-2-yl)methyl)-3-nitro-4-(o-tolylthio)benzamide]	0.078	–
CCN1CCCC1CN(C)C(=O)c1ccc(Sc2ccc(F)cc2)c([N+](=O)[O-])c1 (centres unmarked) [DS-2-061, N-((1-ethylpyrrolidin-2-yl)methyl)-4-((4-fluorophenyl)thio)-N-methyl-3-nitrobenzamide]	0.015	–
C#CCN(CC)CCNC(=O)c1ccc(C(=O)c2ccc(F)cc2)c([N+](=O)[O-])c1 [DS-2-107, N-(2-(ethyl(prop-2-yn-1-yl)amino)ethyl)-4-(4-fluorobenzoyl)-3-nitrobenzamide]	> 1	–
C#CCN(CC)CCNC(=O)c1ccc(Sc2ccc(N=[N+]=[N-])cc2)c([N+](=O)[O-])c1 [DS-2-091, 4-((4-azidophenyl)thio)-N-(2-(ethyl(prop-2-yn-1-yl)amino)ethyl)-3-nitrobenzamide]	> 1	–
CCN1CCCC1CNC(=O)c1ccc(Sc2cccc(Cl)c2)c([N+](=O)[O-])c1 (centres unmarked) [DS-1-295, 4-((3-chlorophenyl)thio)-N-((1-ethylpyrrolidin-2-yl)methyl)-3-nitrobenzamide]	0.07	–
CCN1CCCC1CNC(=O)c1ccc([N+](=O)[O-])c(Sc2ccc(F)cc2)c1 (centres unmarked) [DS-2-115, N-((1-ethylpyrrolidin-2-yl)methyl)-3-((4-fluorophenyl)thio)-4-nitrobenzamide]	0.06	–
CCN1CCCC1CNC(=O)c1ccc(Sc2ccccc2CO)c([N+](=O)[O-])c1 (centres unmarked) [JCH-149, N-((1-ethylpyrrolidin-2-yl)methyl)-4-((2-(hydroxymethyl)phenyl)thio)-3-nitrobenzamide]	0.154	–
CCN1CCCC1CNC(=O)c1ccc(Sc2ccccc2F)c([N+](=O)[O-])c1 (centres unmarked) [DS-1-075, N-((1-ethylpyrrolidin-2-yl)methyl)-4-((2-fluorophenyl)thio)-3-nitrobenzamide]	0.102	–
CCN1CCCC1CNC(=O)c1ccc(Sc2cccc(OC)c2)c([N+](=O)[O-])c1 (centres unmarked) [JCH-146, N-((1-ethylpyrrolidin-2-yl)methyl)-4-((3-methoxyphenyl)thio)-3-nitrobenzamide]	0.185	–
C#CCN(CC)CCNC(=O)c1ccc(Sc2ccc(F)cc2)c(N=[N+]=[N-])c1 [ww3-77, 3-azido-N-(2-(ethyl(prop-2-yn-1-yl)amino)ethyl)-4-((4-fluorophenyl)thio)benzamide]	0.239	–
